Laboratory results published in ChEMBL document CHEMBL1129052, “2-[(2-Aminobenzyl)sulfinyl]-1-(2-pyridyl)-1,4,5,6-tetrahydrocyclopent[d]imidazoles as a novel class of gastric H+/K+-ATPase inhibitors” (J Med Chem, 1996).

Experiments:
[1] = molecular target: Potassium-transporting ATPase (Sus scrofa, UniProt P19156); assay: In vitro inhibition against H+/K+ ATPase from porcine gastric mucosal membrane vesicles; format: tissue-based, Gastric mucosa
[2] = molecular target: Potassium-transporting ATPase (Rattus norvegicus) (UniProt P09626+P18598); assay: Gastric antisecretory activity was tested in rats at 30 mg/kg, po expressed as the percentage of inhibition against the acid output of the control group; format: functional, organism-based; design: dose 30 mg/kg
[3] = molecular target: Potassium-transporting ATPase (Sus scrofa, UniProt P18434+P19156); assay: Inhibition of H+/K+ ATPase from porcine gastric mucosal membrane vesicles; format: tissue-based, Gastric mucosa
Chain of Potassium-transporting ATPase (Sus scrofa, UniProt P18434+P19156) (P18434 whole entry): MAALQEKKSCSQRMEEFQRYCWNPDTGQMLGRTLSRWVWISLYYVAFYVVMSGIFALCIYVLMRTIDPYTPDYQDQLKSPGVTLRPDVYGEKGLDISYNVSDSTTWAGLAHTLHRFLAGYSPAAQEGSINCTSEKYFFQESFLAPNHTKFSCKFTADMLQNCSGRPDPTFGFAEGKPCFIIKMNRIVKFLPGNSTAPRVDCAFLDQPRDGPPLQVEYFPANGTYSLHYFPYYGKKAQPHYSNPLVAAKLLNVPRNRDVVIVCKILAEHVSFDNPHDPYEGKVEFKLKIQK
Chain of Potassium-transporting ATPase (Sus scrofa, UniProt P18434+P19156) (P19156 whole entry): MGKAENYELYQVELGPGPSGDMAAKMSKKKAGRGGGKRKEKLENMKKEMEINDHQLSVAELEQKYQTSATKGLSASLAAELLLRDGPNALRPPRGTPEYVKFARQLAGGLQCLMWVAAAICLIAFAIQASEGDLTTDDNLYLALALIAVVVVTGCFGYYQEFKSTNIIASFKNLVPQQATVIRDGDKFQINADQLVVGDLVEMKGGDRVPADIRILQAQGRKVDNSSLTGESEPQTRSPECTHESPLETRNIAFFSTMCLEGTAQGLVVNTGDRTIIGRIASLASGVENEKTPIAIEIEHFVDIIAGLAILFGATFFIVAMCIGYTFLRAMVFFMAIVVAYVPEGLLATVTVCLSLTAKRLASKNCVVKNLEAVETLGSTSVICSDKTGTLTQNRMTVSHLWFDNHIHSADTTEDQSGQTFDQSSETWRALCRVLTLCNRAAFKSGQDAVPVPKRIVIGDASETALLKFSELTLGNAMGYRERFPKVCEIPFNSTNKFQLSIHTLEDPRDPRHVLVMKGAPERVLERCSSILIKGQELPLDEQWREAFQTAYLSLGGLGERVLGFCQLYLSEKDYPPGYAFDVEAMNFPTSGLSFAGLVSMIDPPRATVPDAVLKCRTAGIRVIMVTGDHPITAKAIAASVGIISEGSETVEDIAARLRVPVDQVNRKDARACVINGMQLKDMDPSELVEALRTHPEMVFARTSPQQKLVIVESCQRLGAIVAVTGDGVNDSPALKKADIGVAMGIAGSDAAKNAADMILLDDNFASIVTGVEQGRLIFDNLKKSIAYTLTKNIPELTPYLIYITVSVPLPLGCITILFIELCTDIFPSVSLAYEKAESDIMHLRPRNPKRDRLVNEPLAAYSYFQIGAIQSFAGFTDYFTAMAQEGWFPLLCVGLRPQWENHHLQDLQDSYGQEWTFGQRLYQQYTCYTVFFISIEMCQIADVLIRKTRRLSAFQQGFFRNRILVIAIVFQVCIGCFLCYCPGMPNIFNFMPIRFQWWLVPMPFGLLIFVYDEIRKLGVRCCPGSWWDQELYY

Chain of Potassium-transporting ATPase (Sus scrofa, UniProt P19156) (P18434 whole entry): as the sequence (P18434 whole entry) above
Chain of Potassium-transporting ATPase (Sus scrofa, UniProt P19156) (P19156 whole entry): as the sequence (P19156 whole entry) above

IC50 [1] [µM]	inhibition [2] [%]	IC50 [3]	SMILES
33	100		Cc1cccnc1-n1ccnc1[S+]([O-])Cc1ccccc1N(C)C (configuration not stated)
50	46		Cc1cc(Br)cnc1-n1ccnc1[S+]([O-])Cc1ccccc1N(C)C (configuration not stated)
14	72		CN(C)c1ccccc1C[S+]([O-])c1nccn1Cc1ccccc1 (configuration not stated)
13	0		COc1cccc(-n2ccnc2[S+]([O-])Cc2ccccc2N(C)C)n1 (configuration not stated)
35	0		CN(C)c1ccccc1C[S+]([O-])c1nccn1-c1ccc(C#N)cn1 (configuration not stated)
60	0		CN(C)c1ccccc1C[S+]([O-])c1nccn1-c1ccc([N+](=O)[O-])cn1 (configuration not stated)
7.4	36		CN(C)c1ccccc1C[S+]([O-])c1nccn1-c1ccc(C(F)(F)F)cn1 (configuration not stated)
5.5	76		CN(C)c1ccccc1C[S+]([O-])c1nccn1-c1ccccn1 (configuration not stated)
46	100		CN(C)c1ccccc1C[S+]([O-])c1nccn1Cc1ccccn1 (configuration not stated)
33	100		COc1cccnc1-n1ccnc1[S+]([O-])Cc1ccccc1N(C)C (configuration not stated)
4.8	1		CN(C)c1ccccc1C[S+]([O-])c1nccn1-c1ncccc1O (configuration not stated)
	30	Not Active	CN(C)c1ccccc1C[S+]([O-])c1nccn1-c1ncccn1 (configuration not stated)
12	98		COc1ccc(-n2ccnc2[S+]([O-])Cc2ccccc2N(C)C)nc1 (configuration not stated)
	30	Not Active	CN(C)c1ccccc1C[S+]([O-])c1nccn1-c1cccnc1 (configuration not stated)
31	96		CCN(CC)c1ccccc1C[S+]([O-])c1nccn1-c1ccccn1 (configuration not stated)
68	9		CN(C)c1ccccc1C[S+]([O-])c1nccn1-c1ccccc1 (configuration not stated)
43	65		CN(C)c1ccccc1C[S+]([O-])c1nccn1-c1nccc2ccccc12 (configuration not stated)
44	47		Cc1ccc(-n2ccnc2[S+]([O-])Cc2ccccc2N(C)C)nc1 (configuration not stated)

IC50 [1] [µM]	inhibition [2] [%]	IC50 [3]	SMILES
	0	Not Active	CN(C)c1ccccc1C[S+]([O-])c1ncc(-c2ccccc2)n1C (configuration not stated)
16	69		CC(C)Oc1cccnc1-n1ccnc1[S+]([O-])Cc1ccccc1N(C)C (configuration not stated)
13	0		CN(C)c1ccccc1C[S+]([O-])c1nccn1-c1ccc(Cl)cn1 (configuration not stated)
	30	Not Active	CN(C)c1ccccc1C[S+]([O-])c1nccn1-c1cnccn1 (configuration not stated)
5.7	48		CN(C)c1ccccc1C[S+]([O-])c1nccn1-c1ccc(N)cn1 (configuration not stated)
2.5	79		Cc1ccnc(-n2ccnc2[S+]([O-])Cc2ccccc2N(C)C)c1 (configuration not stated)
36	100		CN(C)c1ccccc1C[S+]([O-])c1nccn1-c1ccncc1 (configuration not stated)
12	2		CC(=O)Oc1cccnc1-n1ccnc1[S+]([O-])Cc1ccccc1N(C)C (configuration not stated)
20	64		CC(=O)Nc1ccc(-n2ccnc2[S+]([O-])Cc2ccccc2N(C)C)nc1 (configuration not stated)
	0		CN(C)c1ccccc1C[S+]([O-])c1nccn1-c1ccc(Br)cn1 (configuration not stated)
3.4	59		COc1cc(C)nc(-n2ccnc2[S+]([O-])Cc2ccccc2N(C)C)c1 (configuration not stated)
2.6	95		COc1ccnc(-n2ccnc2[S+]([O-])Cc2ccccc2N(C)C)c1 (configuration not stated)
12	13		COc1cnc(-n2ccnc2[S+]([O-])Cc2ccccc2N(C)C)cc1OC (configuration not stated)
14	57		Cc1cccc(-n2ccnc2[S+]([O-])Cc2ccccc2N(C)C)n1 (configuration not stated)
32	98		CN(C)c1ccccc1C[S+]([O-])c1nccn1C (configuration not stated)
6.8	11		CN(C)c1ccccc1C[S+]([O-])c1nccn1-c1cc(OCC(F)(F)F)ccn1 (configuration not stated)
11	0		Cc1cc(C)nc(-n2ccnc2[S+]([O-])Cc2ccccc2N(C)C)c1 (configuration not stated)

The next lines start with the compound.

SMILES	IC50 [1] [µM]	inhibition [2] [%]	IC50 [3]
Cc1cccnc1-n1c([S+]([O-])Cc2ccccc2N(C)C)nc2c1CCC2 (configuration not stated)	> 100	87	
CNc1ccccc1C[S+]([O-])c1nccn1-c1ccccn1 (configuration not stated)	7	54	
[O-][S+](Cc1ccccc1-n1cccc1)c1nc2c(n1-c1ccccn1)CCC2 (configuration not stated)		21	Not Active
CN(C)c1ccccc1C[S+]([O-])c1nc(-c2ccccc2)c(-c2ccccc2)[nH]1 (configuration not stated)		0	Not Active
CN(C)c1ccccc1C[S+]([O-])c1nccn1CCc1ccccn1 (configuration not stated)	44	87	
CCN(CC)c1ccccc1C[S+]([O-])c1nc2c(n1-c1cccnc1)CCC2 (configuration not stated)		0	Not Active
COc1cccnc1-n1ccnc1[S+]([O-])Cc1ccccc1N (configuration not stated)	100	79	
CN(C)c1ccccc1C[S+]([O-])c1nc2c(n1Cc1ccccn1)CCC2 (configuration not stated)	55	12	
[O-][S+](Cc1ccccc1-n1cccc1)c1nccn1-c1ccccn1 (configuration not stated)		88	Not Active
Cc1cccnc1-n1ccnc1[S+]([O-])Cc1ccccc1N1CCOCC1 (configuration not stated)		100	Not Active
Cc1cccnc1-n1ccnc1[S+]([O-])Cc1ccccc1N1CCCCC1 (configuration not stated)		82	Not Active
CN(C)c1ccccc1C[S+]([O-])c1nc2c(n1Cc1ccccc1)CCC2 (configuration not stated)	28	42	
[O-][S+](Cc1ccccc1N1CCCCC1)c1nccn1-c1ccccn1 (configuration not stated)		100	Not Active
[O-][S+](Cc1ccccc1-n1ccnc1)c1nccn1-c1ccccn1 (configuration not stated)		22	Not Active
CN(C)c1ccccc1C[S+]([O-])c1ncc[nH]1 (configuration not stated)	32	80	
CN(C)c1ccccc1C[S+]([O-])c1nc(-c2ccccc2)cn1Cc1ccccc1 (configuration not stated)		0	Not Active
CCNc1ccccc1C[S+]([O-])c1nccn1-c1ncccc1C (configuration not stated)	18	100	
CC(=O)Nc1ccccc1C[S+]([O-])c1nc2c(n1-c1ccccn1)CCC2 (configuration not stated)		75	Not Active
CCN(CC)c1ccccc1C[S+]([O-])c1nc2c(n1-c1ncccc1C)CCC2 (configuration not stated)		53	Not Active
CN(C)c1ccccc1C[S+]([O-])c1nc2c(n1-c1ccccc1)CCC2 (configuration not stated)	68	20	
CNc1ccccc1C[S+]([O-])c1nccn1-c1ncccc1OC (configuration not stated)	6	83	
CCNc1ccccc1C[S+]([O-])c1nccn1-c1ncccc1OC (configuration not stated)	7.5	82	
COc1cccnc1-n1ccnc1[S+]([O-])Cc1ccccc1NC(C)=O (configuration not stated)		90	Not Active
[O-][S+](Cc1ccccc1N1CCOCC1)c1nc2c(n1-c1ccccn1)CCC2 (configuration not stated)		80	Not Active

SMILES	IC50 [1] [µM]	inhibition [2] [%]	IC50 [3]
CN(C)c1ccccc1C[S+]([O-])c1nc2c(n1-c1ccccn1)CCC2 (configuration not stated)	32	97	
CCN(CC)c1ccccc1C[S+]([O-])c1nc2c(n1Cc1ccccn1)CCC2 (configuration not stated)		38	Not Active
CC(=O)Nc1ccccc1C[S+]([O-])c1nccn1-c1ccccn1 (configuration not stated)		99	Not Active
CN(C)c1ccccc1C[S+]([O-])c1nc(-c2ccccc2)cn1C (configuration not stated)		0	Not Active
CNc1ccccc1C[S+]([O-])c1nc2c(n1-c1ncccc1C)CCC2 (configuration not stated)	81	90	
CN(C)c1ccccc1C[S+]([O-])c1nc2c(n1-c1ccccn1)CCCC2 (configuration not stated)	59	12	
Nc1ccccc1C[S+]([O-])c1nccn1-c1ccccn1 (configuration not stated)	27	29	
CCN(CC)c1ccccc1C[S+]([O-])c1nc2c(n1-c1ccncc1)CCC2 (configuration not stated)		0	Not Active
COc1cccnc1-n1ccnc1[S+]([O-])Cc1ccccc1N1CCOCC1 (configuration not stated)		85	Not Active
[O-][S+](Cc1ccccc1N1CCOCC1)c1nccn1-c1ccccn1 (configuration not stated)		90	Not Active
CCN(CC)c1ccccc1C[S+]([O-])c1nccn1-c1ncccc1C (configuration not stated)	100	100	
CCN(CC)c1ccccc1C[S+]([O-])c1nc2c(n1-c1ccccn1)CCC2 (configuration not stated)	11	98	
Cc1cccnc1-n1ccnc1[S+]([O-])Cc1ccccc1N (configuration not stated)	98	98	
CCN(CC)c1ccccc1C[S+]([O-])c1nccn1-c1ncccc1OC (configuration not stated)		94	Not Active
[O-][S+](Cc1ccccc1-n1cccn1)c1nccn1-c1ccccn1 (configuration not stated)		0	Not Active
CN(C)c1ccccc1C[S+]([O-])c1ncc(-c2ccccc2)n1Cc1ccccc1 (configuration not stated)		0	Not Active
Cc1cccnc1-n1ccnc1[S+]([O-])Cc1ccccc1-n1cccc1 (configuration not stated)		47	Not Active
COc1cccnc1-n1ccnc1[S+]([O-])Cc1ccccc1-n1cccc1 (configuration not stated)		39	Not Active
COc1cccnc1-n1ccnc1[S+]([O-])Cc1ccccc1N1CCCCC1 (configuration not stated)		62	Not Active
CN(C)c1ccccc1C[S+]([O-])c1nccn1-c1ncccc1OCc1ccccc1 (configuration not stated)	16	34	
COc1cccnc1-n1c([S+]([O-])Cc2ccccc2N(C)C)nc2c1CCC2 (configuration not stated)	95	73	
CN(C)c1ccccc1C[S+]([O-])c1ncc(-c2ccccc2)n1-c1ccccc1 (configuration not stated)		0	Not Active
CNc1ccccc1C[S+]([O-])c1nccn1-c1ncccc1C (configuration not stated)	7.5		
